Data as given in article PMC11255254, “ER-associated VAP27-1 and VAP27-3 proteins functionally link the lipid-binding ORP2A at the ER-chloroplast contact sites” (Nature Communications, 2024).

The compounds below were run against T1, ORP2A (His-ORP2A; ORP2A-His) (Arabidopsis thaliana, UniProt Q940Y1) (assay: protein-lipid overlay (fat blot), anti-His immunoblot). Conditions: 15 μg sterol spotted on nitrocellulose; overnight incubation in purified protein.
T1 construct: full-length, His6 tag kept (N-terminal in pET16b; also ORP2A-His), E. coli BL21
T1 sequence (Q940Y1 1-721): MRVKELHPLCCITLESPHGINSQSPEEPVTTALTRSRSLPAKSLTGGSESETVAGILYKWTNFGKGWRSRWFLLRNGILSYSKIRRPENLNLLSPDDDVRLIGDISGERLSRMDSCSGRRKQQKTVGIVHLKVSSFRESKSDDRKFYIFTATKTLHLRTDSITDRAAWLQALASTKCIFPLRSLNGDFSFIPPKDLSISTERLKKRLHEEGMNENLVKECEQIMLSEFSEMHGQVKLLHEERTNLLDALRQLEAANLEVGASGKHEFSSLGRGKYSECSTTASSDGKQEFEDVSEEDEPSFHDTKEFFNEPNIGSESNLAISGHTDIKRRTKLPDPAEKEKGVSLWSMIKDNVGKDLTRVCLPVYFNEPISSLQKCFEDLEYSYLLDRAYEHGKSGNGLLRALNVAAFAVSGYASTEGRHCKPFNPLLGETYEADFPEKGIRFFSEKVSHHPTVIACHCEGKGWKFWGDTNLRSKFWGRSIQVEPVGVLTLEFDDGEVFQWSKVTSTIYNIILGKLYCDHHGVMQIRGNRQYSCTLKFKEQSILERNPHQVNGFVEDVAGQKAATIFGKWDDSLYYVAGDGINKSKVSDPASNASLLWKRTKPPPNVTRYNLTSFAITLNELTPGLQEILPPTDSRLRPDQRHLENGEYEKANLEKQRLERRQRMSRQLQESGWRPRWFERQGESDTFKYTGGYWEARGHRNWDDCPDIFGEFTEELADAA
Type: binding

| SMILES | protein-lipid overlay (fat blot), anti-His immunoblot |
| --- | --- |
| CC(C)[C@H](C)CC[C@@H](C)[C@H]1CC[C@H]2[C@@H]3CC=C4C[C@@H](O)CC[C@]4(C)[C@H]3CC[C@]12C [campesterol] | recombinant ORP2A-His shows that the protein interacts with β-sitosterol, stigmasterol and campesterol |
| CC[C@H](/C=C/[C@@H](C)[C@H]1CC[C@H]2[C@@H]3CC=C4C[C@@H](O)CC[C@]4(C)[C@H]3CC[C@]12C)C(C)C [stigmasterol] | recombinant ORP2A-His shows that the protein interacts with β-sitosterol, stigmasterol and campesterol |
| CC[C@H](CC[C@@H](C)[C@H]1CC[C@H]2[C@@H]3CC=C4C[C@@H](O)CC[C@]4(C)[C@H]3CC[C@]12C)C(C)C [β-sitosterol] | recombinant ORP2A-His shows that the protein interacts with β-sitosterol, stigmasterol and campesterol |
